Patent publication US10894038B2, “Indolizine derivatives, composition and methods of use” (Shanghai Fochon Pharmaceutical Co., Ltd., priority 2015, dated 2021)

How the values were obtained:
URAT1 [1] = target: T1, URAT1 (Homo sapiens (Human), UniProt Q96S37); experiment: URAT1 in vitro inhibition activity, Method B (14C-uric acid uptake in HEK293-URAT1 cells); type: cell-based; settings: 5.0 μmol/L 14C-uric acid, 2 min uptake
Procedure: HEK293-URAT1 cell Lines were donated by Japan Fuji Biomedical Research Institute. Negative control cell of HEK293 (MOCK cells) which was transfected with pcDNA3.1 empty vector. HEK293-URAT1 cell lines and MOCK cell lines were cultured in complete growth medium consisting of DMEM supplemented with 10% FBS, penicillin and streptomycin.
Preparation of working solution: Each stock solutions was diluted to different concentrations (6, 20, 60, 200 and 600 μmol/L) with DMSO as 200× working solution, which was then diluted to 2×compound working solution with HBSS (Cl^− free) buffer. Radiolabeled substrate ^14C-Uric acid solution was diluted with HBSS (Cl^− free) buffer to obtain 2× working solution which was mixed with an equal volume of 2× compound working solution to obtain the mixture of radiolabeled substrate and compound working solution.
HER293-URAT1 and MOCK cells were seeded onto 24-well plates at the density of 1.5×10^6 cells per well. The cells were incubated at 37° C., 5% CO2 overnight. After cultured for approximately 2 to 3 days, cells were used for the experiments. The culture medium were removed from the wells, and cells were washed with HBSS (Cl^− free) and incubated in 37° C. HBSS (Cl^− free) for 10 min. HBSS was replaced with 500 μL of the mixture of radiolabeled substrate and compound working solution. The final concentration of ^14C-Uric acid in the assay was 5.0 μmol/L. Plates were incubated at 37° C., 5% CO2 for 2 min, and the reaction was stopped by the addition of pre-chilled HBSS (Cl^− free) by washing three times. 400 μL NaOH ([…]) was added to lyse the cells and the cell lysate was collected to scintillation vials, and 3 ml scintillant (Aquasol-2, PerkinElmer) was added and after mixing completely, the radioactivity was counted by Tri-Carb 2910TR liquid scintillation counter. Each concentration of compounds, positive control and negative control were repeated in two wells (n=2). Inhibition % data were calculated using the formula: Inhibition=[100×(U−U0)/(Uc−U0)]%, and analyzed using Prism5 software.
U0: Average of signals of MOCK cells;
Uc: Average of signals of radiolabeled substrate. The half inhibition concentration of the tested compounds to URAT1 were analyzed using Prism 5 software.
Target sequence in this assay (Q96S37 whole entry, species assumed): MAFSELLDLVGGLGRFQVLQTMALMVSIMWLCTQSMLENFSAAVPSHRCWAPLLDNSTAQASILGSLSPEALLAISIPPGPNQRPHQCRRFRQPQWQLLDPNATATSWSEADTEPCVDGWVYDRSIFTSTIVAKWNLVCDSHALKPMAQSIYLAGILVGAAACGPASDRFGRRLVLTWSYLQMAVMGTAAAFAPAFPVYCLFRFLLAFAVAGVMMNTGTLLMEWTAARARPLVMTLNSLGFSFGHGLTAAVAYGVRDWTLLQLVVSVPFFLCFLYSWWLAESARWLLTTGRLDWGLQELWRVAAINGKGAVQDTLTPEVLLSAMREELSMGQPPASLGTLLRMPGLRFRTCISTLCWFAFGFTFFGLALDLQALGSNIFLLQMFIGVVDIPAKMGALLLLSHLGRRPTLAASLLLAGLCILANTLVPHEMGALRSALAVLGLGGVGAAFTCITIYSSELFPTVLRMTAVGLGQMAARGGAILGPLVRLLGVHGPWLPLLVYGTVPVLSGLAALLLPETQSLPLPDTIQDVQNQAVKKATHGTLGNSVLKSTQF

[2] = test system: potassium oxonate-induced hyperuricemia in rats; experiment: Effect on potassium oxonate-induced hyperuricemia in rats (serum uric acid); type: in vivo, rat; settings: male SD rats, 5 mg/kg oral; for serum uric acid levels, time after dosing 0.5 h: 0.5 h after dosing; for serum uric acid levels, time after dosing 1 h: 1 h after dosing; for serum uric acid levels, time after dosing 2 h: 2 h after dosing; for serum uric acid levels, time after dosing 3 h: 3 h after dosing; for serum uric acid levels, time after dosing 4 h: 4 h after dosing
Procedure: Healthy male SD rats, weighing 250±20 g, were used. In the experiment, except for 10 rats as normal control group were orally administered with distilled water, the others were orally administered with yeast extract (20 g/kg, qd×5 days). One hour after last administration, all the rats were intraperitoneal injection with 250 mg/kg potassium oxonate while normal control group was treated with an equal volume of 0.5% CMC-Na (injection volume of 2 ml/kg). After one hour, rats were anesthetized with isoflurane and the serum uric acid was determined by uric acid test strip. All the rats were divided into groups by uric acid. The model control group and experimental groups was given orally administration 0.5% CMC-Na or compounds with a dose of 10 ml/kg-bw. Phosphotungstic acid precipitation method was used to detect serum uric acids in inner canthus blood at 0.5, 1, 2, 3, 4 h after administration, respectively. Substantially, observing the effects of compounds on serum uric acids levels and calculating each of groups' AUC and the inhibition of uric acid increased area by the equation as follows: […]
As shown in the equation, AUC0 indicated the AUC of model control group, AUC1 indicated the AUC of therapy group, AUC2 indicated the AUC of normal control group.

URAT1 [3] = target: T1, URAT1; experiment: URAT1 in vitro inhibition activity, Method A (14C-uric acid uptake in HEK293-URAT-4 cells); type: cell-based; settings: 50 μM 14C-uric acid, 10 min uptake
Procedure: The potency of the compounds of formula (I) as inhibitors of the URAT1 was determined as follow.
Cell Lines were generated in WuXi AppTec (HEK293-URAT-4: Stable cell line of HEK293 which was transfected with pcDNA3.1-URAT (Human SLC22A12 cDNA Clone, Abgent-DC07943). HEK293-PCDNA-5: Negative control cell of HEK293 which was transfected with pcDNA3.1 empty vector.
Cells were seeded onto 24-well plates at the density of 2.0×10^5 cells per well. The cells were incubated at 37° C., 5% CO2 overnight. After approximately 24 hours culture, cells were used for uptake experiments. The culture medium were removed from the wells and the cells were incubated in 0.4 ml/well of Hank's balanced salt solution (HBSS) for 10 min. HBSS was replaced with 0.18 ml/well fresh HBSS. Compounds were 5 folds serial diluted in DMSO, and then 25 folds diluted in HBSS. Compounds diluted with HBSS (10 μl) were added to relevant well of cell plates, and plates were incubated at 37° C., 5% CO2 for 15 min. The final concentration of DMSO in the assay was 0.2%. 10 μl HBSS containing radioactively labeled Urate (^14C-uric acid) was added to each well. The final concentration of ^14C-uric acid in the assay medium was 50 μM. After 10 min, the assay medium was immediately removed. The cells were washed quickly with 0.5 ml pre-chilled HBSS twice. 0.1 M NaOH (0.4 ml) was added to lyse the cells for at least 20 min. The cell lysate was collected to a scintillation vial, and scintillant (4 ml) was added and the radioactivity was counted by a liquid scintillation counter. Inhibiton % data were calculated using the formula
[formula] CPD: Signal from a well containing a test compound HC (high control): Average of signals from HEK293-URAT-4 cells LC (low control): Average of signals from HEK293-PCDNA-5.
Target sequence in this assay (Q96S37 whole entry): as the sequence (Q96S37 whole entry, species assumed) above

IC50 (URAT1 [3]) | Structure (SMILES) | IC50 (URAT1 [1]) | serum uric acid levels, time after dosing 0.5 h [2] | serum uric acid levels, time after dosing 1 h [2] | serum uric acid levels, time after dosing 2 h [2] | serum uric acid levels, time after dosing 3 h [2] | serum uric acid levels, time after dosing 4 h [2]
– | N#Cc1ccc(-c2cnccc2SC2(C(=O)O)CCC2)n2ccc(F)c12 [Example 21, 1-((3-(8-cyano-1-fluoroindolizin-5-yl)pyridin-4-yl)thio)cyclobutane-1-carboxylic acid] | 85 nM | – | – | – | – | –
– | N#Cc1ccc(-c2cnccc2SC2(C(=O)O)CCC2)c2ccc(Cl)n12 [Example 10, 1-((3-(3-chloro-5-cyanoindolizin-8-yl)pyridin-4-yl)thio)cyclobutane-1-carboxylic acid] | 424 nM | – | – | – | – | –
– | N#Cc1ccc(-c2cnccc2SC2(C(=O)O)CCC2)n2c(Cl)ccc12 [Example 23, 1-((3-(3-chloro-8-cyanoindolizin-5-yl)pyridin-4-yl)thio)cyclobutane-1-carboxylic acid] | 89 nM | – | – | – | – | –
– | N#Cc1ccc(-c2cnccc2SC2(C(=O)O)CCC2)n2cc(Br)cc12 [Example 15, 1-((3-(2-bromo-8-cyanoindolizin-5-yl)pyridin-4-yl)thio)cyclobutane-1-carboxylic acid] | 29 nM | 476.8 ± 61.7 µmol/L | 496.3 ± 74.8 µmol/L | 401.7 ± 52.9 µmol/L | 331.3 ± 70.5 µmol/L | 278.0 ± 46.0 µmol/L
282 nM | CC(C)(Sc1ccncc1-c1ccc(C#N)c2ccc(Cl)n12)C(=O)O [Example 3, 2-((3-(3-chloro-8-cyanoindolizin-5-yl)pyridin-4-yl)thio)-2-methylpropanoic acid] | – | – | – | – | – | –
68 nM | CC(C)(Sc1ccncc1-c1ccc(C#N)c2c(Cl)ccn12)C(=O)O [Example 4, 2-((3-(1-chloro-8-cyanoindolizin-5-yl)pyridin-4-yl)thio)-2-methylpropanoic acid] | – | – | – | – | – | –
– | CC(C)(Sc1ccncc1-c1ccc(C#N)c2cc(Cl)cn12)C(=O)O [Example 14, 2-((3-(2-chloro-8-cyanoindolizin-5-yl)pyridin-4-yl)thio)-2-methylpropanoic acid] | 30 nM | 476.3 ± 53.4 µmol/L | 489.5 ± 83.1 µmol/L | 385.8 ± 68.2 µmol/L | 337.2 ± 72.4 µmol/L | 285.4 ± 47.7 µmol/L
– | N#Cc1cc2c(C#N)ccc(-c3cnccc3SC3(C(=O)O)CCC3)n2c1 [Example 17, 1-((3-(2,8-dicyanoindolizin-5-yl)pyridin-4-yl)thio)cyclobutane-1-carboxylic acid] | 45 nM | 454.4 ± 39.8 µmol/L | 458.1 ± 66.7 µmol/L | 432.2 ± 67.6 µmol/L | 403.0 ± 70.0 µmol/L | 340.1 ± 56.0 µmol/L
– | N#Cc1ccc(-c2cnccc2SC2(C(=O)O)CCC2)n2cc(Cl)cc12 [Example 13, 1-((3-(2-Chloro-8-cyanoindolizin-5-yl)pyridin-4-yl)thio)cyclobutane-1-carboxylic acid] | 26 nM | 487.2 ± 46.9 µmol/L | 523.6 ± 50.4 µmol/L | 422.0 ± 54.1 µmol/L | 341.4 ± 69.4 µmol/L | 295.5 ± 47.2 µmol/L
– | CC(C)(Sc1ccncc1-c1ccc(C#N)c2cc(Br)cn12)C(=O)O [Example 16, 2-((3-(2-bromo-8-cyanoindolizin-5-yl)pyridin-4-yl)thio)-2-methylpropanoic acid] | – | 460.6 ± 46.5 µmol/L | 491.9 ± 77.4 µmol/L | 380.6 ± 47.4 µmol/L | 293.9 ± 42.1 µmol/L | 264.7 ± 38.8 µmol/L
110 nM | Cc1cc2c(C#N)ccc(-c3cnccc3SC3(C(=O)O)CCC3)n2c1 [Example 5, 1-((3-(8-cyano-2-methylindolizin-5-yl)pyridin-4-yl)thio)cyclobutane-1-carboxylic acid] | – | – | – | – | – | –
– | N#Cc1ccc(-c2cnccc2SC2(C(=O)O)CCC2)c2cc(Cl)cn12 [Example 11, 1-((3-(2-chloro-5-cyanoindolizin-8-yl)pyridin-4-yl)thio)cyclobutane-1-carboxylic acid] | 828 nM | – | – | – | – | –
– | CS(=O)(=O)c1cc2c(C#N)ccc(-c3cnccc3SC3(C(=O)O)CCC3)n2c1 [Example 19, 1-((3-(8-cyano-2-(methylsulfonyl)indolizin-5-yl)pyridin-4-yl)thio)cyclobutane-1-carboxylic acid] | 332 nM | – | – | – | – | –
– | N#Cc1ccc(-c2cnccc2SC2(C(=O)O)CCC2)n2c(F)ccc12 [Example 20, 1-((3-(8-Cyano-3-fluoroindolizin-5-yl)pyridin-4-yl)thio)cyclobutane-1-carboxylic acid] | 34 nM | – | – | – | – | –
– | CC(C)(Sc1ccncc1-c1ccc(C#N)n2cccc12)C(=O)O [Example 9, 2-((3-(5-cyanoindolizin-8-yl)pyridin-4-yl)thio)-2-methylpropanoic acid] | – | 432.1 ± 43.2 µmol/L | 450.8 ± 40.9 µmol/L | 385.5 ± 52.2 µmol/L | 347.1 ± 46.8 µmol/L | 336.3 ± 59.1 µmol/L
– | COCC(C)(Sc1ccncc1-c1ccc(C#N)c2cccn12)C(=O)O (stereo not drawn) [Example 31, 2-((3-(8-cyanoindolizin-5-yl)pyridin-4-yl)thio)-3-methoxy-2-methylpropanoic acid] | 504 nM | – | – | – | – | –
– | N#Cc1ccc(-c2cnccc2SC2(C(=O)O)CCC2)c2cccn12 [Example 8, 1-((3-(5-cyanoindolizin-8-yl)pyridin-4-yl)thio)cyclobutane-1-carboxylic acid] | 55 nM | 449.8 ± 39.8 µmol/L | 483.9 ± 62.9 µmol/L | 451.2 ± 58.9 µmol/L | 393.9 ± 68.6 µmol/L | 358.3 ± 68.2 µmol/L
– | N#Cc1ccc(-c2cnccc2SC2(C(=O)O)CCC2)c2cc(F)cn12 [Example 12, 1-((3-(5-cyano-2-fluoroindolizin-8-yl)pyridin-4-yl)thio)cyclobutane-1-carboxylic acid] | 271 nM | – | – | – | – | –
